The subject of test [1] is LTED cells. In words: Levels of apoptotic proteins in treated LTED cells (immunoblot of cytosolic and mitochondrial fractions, immunoprecipitation). Type of test: cell-based, human. Particulars: for Mcl-1 level: FTS 75 μM 0-48 h (by 24 h) or estradiol 0-48 h; for Bim level (BimEL, BimL): FTS 75 μM 0-48 h or estradiol 0-48 h (early time points 4, 8 h); for Survivin level: FTS 75 μM (from 8 to 16 h, undetectable at 24 and 48 h) or estradiol; for Phospho JNK level: FTS 75 μM over 48 hours or estradiol; for Cytochrome c level in the cytosol / Smac (Smac/Diablo) level in the cytosol: FTS at 24 and 48 h, estradiol by 48 h. As to the method:
The inventors herein initially examined the class of proteins which influences MOMP (mitochondrial outer membrane pore) formation, a key component of the intrinsic pathway of apoptosis. Pro-apoptotic members such as Bax, Bim, and Bak, promote the release of Cytochrome c from the mitochondria, whereas anti-apoptotic members, such as Bcl-2 and Mcl-1, prevent release. The balance of pro-apoptotic and anti-apoptotic Bcl-2 proteins therefore influences the fate of the cell. LTED cells were treated with 75 μM FTS for 0, 4, 8, 16, 24 and 48 h with examination of cytosolic fractions (FIG. 1A).
To ascertain whether Bax was activated in FTS-treated LTED cells, Bcl-2 was immunoprecipitated and then probed for Bim and Bax (See FIG. 1B). Probed cell extracts were probed with the use of an antibody that recognizes only the conformationally altered Bax protein. […] The pro-apoptotic effect of Bim is predominantly through its binding to Bcl-2 that ablates Bcl-2 pro-survival function. As shown in FIG. 1B we found the interaction between Bim and Bcl-2 is increased, whereas the interaction between Bax and Bcl-2 was reduced. As evidence of the exodus of proteins through mitochondrial membrane pores, Cytochrome c and Smac levels in the cytosol were increased at 24 and 48 h, times when Mcl-1 was decreased and Bim, increased (FIG. 1A). […] After showing these effects on MOMP, other key factors involved in apoptosis were examined.
Cells were treated with estradiol for 0, 2, 4, 8, 24 and 48 h and cytosolic fractions prepared. […] Mitochondrial fractions (FIG. 1D, right panel), confirmed the increase in Bim isoforms. […] Because Bim appeared to be critical for estradiol-mediated apoptosis, we carried out a titration of E2, probed for Bim and found it increased over time (See FIG. 1E).
Cells grown in 100 mm dishes were washed with cold PBS and extracted with 1 ml lysis buffer (50 mM Tris-HCl, 150 mM NaCl, 5 mM EDTA, 25 mM NaF, 2 mM NaVO4, 5% glycerol, 1% Triton X-100, 10 μg/ml leupeptin, aprotinin, and pepstatin). Samples were incubated on ice for 30 min, sonicated, and centrifuged at 14,000 rpm for 10 min at 4° C. Supernatants containing 0.5 mg total protein were incubated with antibody against the target protein at 4° C. overnight before addition of 40 μl Protein G beads (Invitrogen) and continued incubation at 4° C. for 2 h. The protein G beads with immunocomplex were centrifuged at 14,000 rpm for 20 sec. The supernatant was carefully removed. The beads were washed twice with 1 ml buffer II (20 mM MOPS, 2 mM EGTA, 5 mM EDTA, 25 mM NaF, 40 mM β-glycerophosphate, 10 mM sodium pyrophosphate, 2 mM NaVO4, 0.5% Triton X-100, 1 mM PMSF, 10 μg/ml leupeptin, aprotinin, and pepstatin) and then boiled in 50 μl 2× Laemmli's buffer. The samples were subjected to electrophoresis in 10% SDS polyacrylamide gel followed by immunoblotting.

The test system of the next test is MCF-7-5C cells. The test can be described thus: Apoptosis in MCF-7-5C cells, E2 and T-DM-1 alone and in combination. The format is cell-based. Particulars: agent alone.
For test [2], the system named is LTED (long-term estrogen deprived) cells. In words: Growth inhibition and drug interaction assay (nuclei count, combination index), LTED. The format is cell-based, human.
Protocol: When the combination index is equivalent to one (CI=1), this means the two drugs work together in an additive manner. […] The effective dose one (D1) is then plotted on the x-axis and the effective dose two (D2) was plotted on the y-axis. The plotting of the effective dose (ED) can be is done at Fa equals 0.5, 0.75, 0.9 and 0.95. This generates the isobologram.
Cells were plated in six-well plates at a density of 60,000 cells per well. Two days later, the cells were treated in triplicate as described in the descriptions of the figures. At the end of treatment, cells were rinsed twice with saline. Nuclei were prepared by sequential addition of 1 mL HEPES-MgCl2 solution (0.01 mol/L HEPES and 1.5 mmol/L MgCl2) and 0.1 mL ZAP solution [0.13 mol/L ethylhexadecyldimethylammonium bromide in 3% glacial acetic acid (v/v)] and were counted using a Coulter counter (BeckmanCoulter, Inc., Fullerton, Calif.). […] The combination index and values with a mean and standard deviation were calculated using the Monte Carlo simulation using the computer software CalcuSyn from Biosoft (Cambridge, U.K.) [10].
The nature of the interaction between the agents was evaluated by the combination index method of Chou and Talalay [8,9]. […]
Where D is the dose that yields x % growth inhibition and α=0 for mutually exclusive drugs and α=1 for mutually non-exclusive drugs. Synergy as calculated and defined by the CalcuSyn software as a CI<1; additivity is CI=1 and antagonism is CI>1[10].
In test [3] the test system is LTED cells. In words: FTS-induced apoptosis and caspase involvement in LTED cells. Type of test: cell-based, human. The method, then:
FTS has been reported to invoke cell death through caspase activation in non-breast tissues. To address whether FTS was promoting death of breast cancer cells by activation of caspases LTED cells were treated with either vehicle, FTS, or FTS in the presence of increasing concentrations of the pan-caspase inhibitor z-VAD-fmk (See FIG. 1C top panel). […] Caspase-8 activity does appear to increase; however this is not inhibited by Z-IETD-FMK. See FIG. 2, showing a time course bar graph (2A) and a cell viability versus concentration curve (2B) displaying (FIG. 2A) the effect of FTS and curcumin in combination on wild type MCF-7 cells; and (FIG. 2B) the effect of FTS alone or in combination with curcumin on MCF-7 cell viability.

A further test concerns MCF-7 cells. The test can be described thus: Growth inhibition and drug interaction assay (nuclei count, combination index), MCF-7. Particulars: Homo sapiens, MCF7, FIG. 3, read-out: concentration with 50% inhibitory effect. The format is cell-based. The text has this: We examined some of these agents in both the non-adapted cell lines (See FIGS. 4, 6, 8) and adapted cell lines (See FIGS. 5, 7, 9). We treated breast cancer cells with increasing concentrations of the individual drugs followed by testing with their combinations. We determined the number of cells that were killed (fraction affected, fa) and the number of cells that were not affected by the drug (fraction unaffected, fu) (See FIG. 4). Then dose effect curves are transformed into their corresponding linear forms by the median-effect plot where y=log(fa/fu) vs. x=log (D)[8,34]. From the median effect plot the combination index (CI) can be determined. […]
Cells were plated in six-well plates at a density of 60,000 cells per well. […] Nuclei were prepared by sequential addition of 1 mL HEPES-MgCl2 solution (0.01 mol/L HEPES and 1.5 mmol/L MgCl2) and 0.1 mL ZAP solution [0.13 mol/L ethylhexadecyldimethylammonium bromide in 3% glacial acetic acid (v/v)] and were counted using a Coulter counter (BeckmanCoulter, Inc., Fullerton, Calif.). […] The combination index and values with a mean and standard deviation were calculated using the Monte Carlo simulation using the computer software CalcuSyn from Biosoft (Cambridge, U.K.).
The nature of the interaction between the agents was evaluated by the combination index method of Chou and Talalay. […]

Where [4] appears, read: FTS-treated LTED cells, Bcl-2 immunoprecipitation.

Where a SMILES comes first, the peptide text is derived from it. The star is where a group is joined. Cbz = O=C(OCc1ccccc1)*; CH2F = FC*

For `C[C@]12CC[C@@H]3c4ccc(O)cc4CC[C@H]3[C@@H]1CC[C@@H]2O` [E2, 17β-Estradiol], in the test with LTED cells [1] (LTED cells), the Mcl-1 level result was “decreased”; the “Bim level (BimEL, BimL)” value is listed as “increased”; the Survivin level entry is reported as “not”; the “Phospho JNK level” value was “increased”. In the test with LTED cells [1] (LTED cells), the “Cytochrome c level in the cytosol” value is “released into the cytosol” and the “Smac (Smac/Diablo) level in the cytosol” value was “released into the cytosol”. Also, the Bok level result in the test with LTED cells [1] (LTED cells, titration of E2) was “increased in a concentration-dependent manner”. The induction of apoptosis entry in the test on MCF-7-5C cells is given as “induced apoptosis”.

Turning to `CC(C)=CCC/C(C)=C/CC/C(C)=C/CSc1ccccc1C(=O)O` [FTS, S-trans, trans-Farnesylthiosalicyclic acid], in the test on LTED cells [1] (FTS-treated LTED cells), the “Apoptosis inducing factor (AIF) in the cytosol” value was “appeared in the cytosol only at 48 h”. For the same compound, in the test with LTED cells [1] (setting [4]), the “interaction between Bax and Bcl-2” value is on record as “reduced”; the “interaction between Bim and Bcl-2” value is recorded as “increased”. The “Bax activation (conformationally altered Bax)” value with LTED cells [1] (FTS-treated LTED cells, conformation-specific antibody) is on record as “underwent a conformational change”. In the test with LTED cells [1] (LTED cells), the Mcl-1 level entry was “decrease”; the “Bim level (BimEL, BimL)” value is recorded as “increase”; the Survivin level entry was “decreased”; the “Phospho JNK level” value is given as “increased”. For the same compound, in the test on LTED cells [1] (LTED cells), the “Cytochrome c level in the cytosol” value was “increased” and the “Smac (Smac/Diablo) level in the cytosol” value is listed as “increased”. Also, in the test with LTED cells [1] (LTED cells, FTS 75 μM 0-48 h, cytosolic fractions), the Bcl-2 level result was “unchanged”. The XIAP level entry in the test on LTED cells [1] (LTED cells, FTS 75 μM or estradiol) is recorded as “did not change”. In addition, the p21 level entry in the test with LTED cells [1] (LTED cells, FTS 75 μM, from 4 h to 48 h) is recorded as “steady decrease”. Further, the cell number in test [2] (FTS alone, doses 25, 50, 75 and 100 μM) is listed as 14 % of control. Further, in the test on LTED cells [3] (FTS-treated LTED cells), the “caspase-8 changes (death receptor pathway)” value is given as “no substantial caspase-8 changes”.

As for `CC[C@@H](C(=O)[C@@H](C)[C@@H](O)[C@H](C)[C@@H]1O[C@@H]([C@@H](CC)C(=O)O)CC[C@@H]1C)[C@H]1O[C@]2(C=C[C@@H](O)[C@]3(CC[C@@](C)([C@H]4CC[C@](O)(CC)[C@H](C)O4)O3)O2)[C@H](C)C[C@@H]1C` [Salinomycin], the IC50 in the test on MCF-7 cells was determined as 2000 nM.

As for `COc1cc(/C=C/C(=O)CC(=O)/C=C/c2ccc(O)c(OC)c2)ccc1O` [curcumin], the “concentration at which initial effects in reducing cell number were observed” value in test [2] (dose response, preliminary studies) amounted to 250 nM. The “concentration showing effects in reducing cell number, later studies” value in test [2] (later studies) worked out at 125 nM.

Take `COC(=O)C[C@H](NC(=O)[C@H](C)NC(=O)[C@@H](NC(=O)OCc1ccccc1)C(C)C)C(=O)CF` [z-VAD-fmk] (Cbz-Val-Ala-Asp(OMe)-CH2F): the “effect on FTS-induced apoptosis” value in the test with LTED cells [3] (LTED cells, FTS plus increasing concentrations of pan-caspase inhibitor) was “blocked”.

With T-DM1, the induction of apoptosis result in the test on MCF-7-5C cells is “induced apoptosis”.

The values above are taken from patent publication US20140161827A1, “COMPOSITIONS AND METHODS FOR TREATING CANCER” (University of Virginia Patent Foundation, priority 2011, published 2014).
